Measured values taken from paper PMC8968952, “Modulation of ERCC1-XPF Heterodimerization Inhibition via Structural Modification of Small Molecule Inhibitor Side-Chains” (Frontiers in Oncology, 2022).
Values joined by “and” are separate entries in the source; they are usually repeats but may differ in a detail not shown here. Identical values can stand only once.

Assays:
[1] = target: T1, ERCC1-XPF (Homo sapiens, UniProt Q92889); assay: Microplate fluorescence incision assay (endonuclease activity); assay type: biochemical
T1 construct: the final purity of the full-length ERCC1-XPF heterodimer was determined to be ~35%; His6; made in house; host or cells: E. coli BL21(DE3)
T1 sequence (Q92889 1-916): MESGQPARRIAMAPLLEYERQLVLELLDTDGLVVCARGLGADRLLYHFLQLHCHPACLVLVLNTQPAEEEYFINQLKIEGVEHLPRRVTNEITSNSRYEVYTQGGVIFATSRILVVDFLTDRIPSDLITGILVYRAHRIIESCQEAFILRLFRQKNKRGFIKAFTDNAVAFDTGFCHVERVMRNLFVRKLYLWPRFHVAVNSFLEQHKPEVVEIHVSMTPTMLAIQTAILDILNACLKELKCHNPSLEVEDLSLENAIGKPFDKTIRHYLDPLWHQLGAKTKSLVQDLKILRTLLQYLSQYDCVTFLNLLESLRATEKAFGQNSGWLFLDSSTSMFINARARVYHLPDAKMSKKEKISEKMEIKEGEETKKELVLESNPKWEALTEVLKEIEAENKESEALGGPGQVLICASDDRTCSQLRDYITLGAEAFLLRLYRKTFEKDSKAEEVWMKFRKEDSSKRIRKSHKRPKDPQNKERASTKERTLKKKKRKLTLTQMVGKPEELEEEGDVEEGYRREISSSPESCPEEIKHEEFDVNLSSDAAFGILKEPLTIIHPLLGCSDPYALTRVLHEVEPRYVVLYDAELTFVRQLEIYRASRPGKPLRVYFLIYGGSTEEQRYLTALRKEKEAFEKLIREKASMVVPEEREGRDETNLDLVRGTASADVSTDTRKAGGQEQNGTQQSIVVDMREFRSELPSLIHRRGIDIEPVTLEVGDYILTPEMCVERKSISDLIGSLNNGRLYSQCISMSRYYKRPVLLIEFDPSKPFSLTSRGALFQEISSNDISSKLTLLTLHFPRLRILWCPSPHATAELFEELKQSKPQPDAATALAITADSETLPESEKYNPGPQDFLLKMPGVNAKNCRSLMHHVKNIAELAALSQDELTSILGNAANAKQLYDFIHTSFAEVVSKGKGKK
Source text: Recombinant human ERCC1–XPF wild-type protein (containing polyhistidine (His-6) tags) was expressed from a bicistronic plasmid (kindly provided by Dr. Richard Wood, University of Texas MD Anderson Cancer Center, Smithville, TX) in the E. coli BL21(DE3) strain, Following previously described procedures ([70], [78]) the proteins extracted from E. coli were eluted from a ProBond Nickel-Chelating Resin (Thermo Fisher Scientific) and then a Hi-trap heparin column (GE Healthcare). Fractions containing ERCC1–XPF were dialyzed, concentrated, and stored at −80°C in 10 mM HEPES, pH 7.4, 2.5 mM β-mercaptoethanol, 0.01% CHAPS, 0.25 mM EDTA, 50% glycerol, and 25 mM NaCl. Based on polyacrylamide gel separation and Coomassie Blue staining, the final purity of the full-length ERCC1-XPF heterodimer was determined to be ~35%.
We employed a previously described protocol ([60], [70], [78]) in which the incision of the stem–loop substrate [6-FAM-5′-[…](20T)[…]-3′-dabcyl] (100 nM in 50 mM Tris-HCl, pH 8, 20 mM NaCl, 0.5 mM DDT, and 0.75 mM MnCl2) mediated by ERCC1-XPF (25 ng) in a total volume of 20 μL at 25°C was monitored by fluorescence using a FLUOstar Optima fluorimeter (BMG Labtech) with Optima software and excitation and emission wavelengths of 485 and 520 nm, respectively, for 5.5 min. The final concentration of inhibitor in the reaction was 10 μM prepared from a 200 μM stock solution in DMSO. With a molecular weight of 151 KDa for the XPF-ERCC1 heterodimer, a concentration of 25 ng of protein in 20 µl reaction buffer and a purity of 35%, the molar concentration of the enzyme was estimated to be 2.9 nM. Data were plotted using Microsoft Excel 2016.
An in vitro fluorescence-based assay was used to assess the ability of the synthesized compounds to inhibit the endonuclease activity of ERCC1-XPF. This assay has been previously described ([60], [70], [78]) and makes use of a stem-loop DNA substrate with a 5’-FAM fluorescent dye, and a 3’-dabcyl quencher. When ERCC1-XPF can cleave the DNA substrate, a 5’-FAM containing molecule is liberated from the stem-loop (and the quencher) and the fluorescence of the solution increases. The increase of the fluorescence of the solution can be observed in Figure 3A , in the absence of any inhibitor. To determine the influence of the inhibitory compounds, the protein was preincubated for 10 minutes with 10 μM of each inhibitor prior to addition of the substrate.

[2] = tested on: HCT-116 cells; assay: Clonogenic survival assay, ionizing radiation; assay type: cell-based, human; conditions: 0.5 and 1 μM, 0 to 8 Gy γ-radiation
Method: The effectiveness of compound 6 for sensitization of cells to ionizing radiation was also assessed using the clonogenic survival assay. Briefly, 200-3000 of HCT-116 cells (depending on the radiation dose) were seeded and after 24 hours the cells were pretreated with 0.5 or 1 µM of compound 6 in DMSO for 4 hours followed by exposure to increasing doses of γ-radiation (^60Co Gammacell; Atomic Energy of Canada Limited, Ottawa) from 0 to 8 Gy (at a dose rate of 0.8 Gy/min) and kept for an additional 24 hours in inhibitor-containing medium. The medium was then replaced with fresh medium without the compound, and the plates were incubated at 37°C for 9 more days before staining and determining the number of colonies. Data were plotted using GraphPad Prism version 5.04 software.

[3] = Metabolic stability in human liver microsomes; assay type: in vitro ADME
Method: The ADME (absorption, distribution, metabolism, and excretion) profile of our lead compound 6 was determined by standard protocols carried out by WuXi AppTec (Shanghai) Co (https://www.wuxiapptec.com/). The following tests were conducted: distribution coefficient (log D at pH 7.4), aqueous solubility (Kinetic), metabolic stability in human liver microsomes and cryopreserved human hepatocytes, bidirectional permeability in Caco-2 cells, serum protein binding, and cytochrome P450 (CYP) inhibition (CYP1A2, CYP2C9, CYP2C19, CYP2D6, and CYP3A4-M).

For COc1ccc2nc3cc(Cl)ccc3c(Nc3ccc(O)c(CN4CCN(CCN(C(C)C)C(C)C)CC4)c3)c2c1 [Compound 6], the IC50 [1] was 167 nM and 170 nM, the “inhibition of ERCC1-XPF endonuclease activity (in words, vs control and 4)” value ([1]; 10 μM inhibitor, 10 min preincubation) was “increased inhibition of ERCC1-XPF endonuclease activity relative to 4” and the “decrease of ERCC1-XPF endonuclease activity” value ([1]; 10 μM inhibitor, at 5.5 minutes) was 94%. For the same compound, the “sensitization to ionizing radiation (in words)” value [2] was “sensitized HCT-116 cells in a dose-dependent manner”, the “metabolic stability grade, liver microsome assay (in words)” value [3] was “low to moderate metabolic stability” and the CLint scaled ([3]; human, liver microsomes, read-out: Metabolic stability in human liver microsomes (clearance)) was 376 mL/min/kg.
